Reference: publication PMC8929122, “Application of a Combined Peptidomics and In Silico Approach for the Identification of Novel Dipeptidyl Peptidase-IV-Inhibitory Peptides in In Vitro Digested Pinto Bean Protein Extract” (Current Issues in Molecular Biology, 2021)
Peptide text beside a SMILES is read from it.

What was measured:
[1] = tested on: Dipeptidyl peptidase IV (DPP-IV); settings: Parmigiano Reggiano peptides, previous study; cited from earlier work
Description: Table 1 Peptides with previously reported biological activity identified in in vitro-digested Pinto bean protein extract. | column: Bioactivity ^1 || The described approach was applied in a previous study on Parmigiano Reggiano samples allowing the selection of 6 candidates to be tested in vitro starting from a pool of 415 peptides identified by peptidomics techniques. […] The high inhibitory potency of SAPI was probably due to the combined presence of an A residue in second position and a P residue in third position. […] The PepSite2 server was used to predict the possible interaction between SAPI and the DPP-IV binding sites by analyzing the enzyme active site residues closer to the peptide amino ...

rat intestinal DPP-IV = target: T1, rat intestinal DPP-IV (Rattus norvegicus, UniProt P14740); test: In vitro DPP-IV inhibitory activity of synthetic peptides; type: biochemical; settings: rat intestinal DPP-IV 0.1 U/mL; 0.1 mol/L Tris-HCl pH 7.0; 20 min pre-incubation at 37 °C; glycine-proline-p-nitroanilide 6.4 mmol/L (5 μL); 20 min reaction at 37 °C; absorbance 405 nm; mean ± SD, three replicates; read-out: IC50 value for DPP-IV inhibition
T1 construct: 10 μL of rat intestinal DPP-IV (0.1 U/mL in the assay); from tissue; host or cells: rat intestine
T1 sequence (P14740 whole entry): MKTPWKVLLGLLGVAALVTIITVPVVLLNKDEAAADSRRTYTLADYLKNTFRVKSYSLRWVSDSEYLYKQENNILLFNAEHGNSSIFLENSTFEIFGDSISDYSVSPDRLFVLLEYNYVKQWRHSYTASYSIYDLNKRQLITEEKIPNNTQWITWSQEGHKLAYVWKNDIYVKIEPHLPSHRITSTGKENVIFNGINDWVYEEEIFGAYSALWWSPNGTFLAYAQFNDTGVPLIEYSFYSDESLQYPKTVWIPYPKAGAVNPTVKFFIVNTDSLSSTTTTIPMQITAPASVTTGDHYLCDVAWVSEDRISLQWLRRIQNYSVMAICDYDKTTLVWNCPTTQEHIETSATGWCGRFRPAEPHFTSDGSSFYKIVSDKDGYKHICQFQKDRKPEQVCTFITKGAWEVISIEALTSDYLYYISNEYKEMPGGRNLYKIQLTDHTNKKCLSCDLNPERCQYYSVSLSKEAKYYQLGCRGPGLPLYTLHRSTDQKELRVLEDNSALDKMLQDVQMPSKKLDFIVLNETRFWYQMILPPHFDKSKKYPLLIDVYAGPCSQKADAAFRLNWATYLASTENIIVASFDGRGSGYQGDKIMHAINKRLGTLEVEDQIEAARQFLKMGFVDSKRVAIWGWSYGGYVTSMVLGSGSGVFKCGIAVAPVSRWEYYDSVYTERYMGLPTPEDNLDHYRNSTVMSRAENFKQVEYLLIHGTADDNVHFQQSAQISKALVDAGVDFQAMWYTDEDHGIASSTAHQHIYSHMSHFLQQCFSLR
Method: Selected synthetic peptides (Bio-Fab Research, Rome, Italy) were then tested for their DPP-IV-inhibitory activity as reported in Tagliazucchi et al.. Briefly, 145 μL of 0.1 mol/L Tris-HCl buffer (pH 7.0) were mixed with 10 μL of rat intestinal DPP-IV (0.1 U/mL in the assay) and 40 μL of synthetic peptides at different concentrations, in a 96-well plate. The reaction was started after 20 min of pre-incubation at 37 °C by the addition of 5 μL of 6.4 mmol/L glycine-proline-p-nitroanilide. After a further 20 min of reaction at 37 °C, the amount of released p-nitroanilide was measured by reading the absorbance at 405 nm in a microplate reader. Results were expressed as IC50 values (peptide concentration that inhibit the 50% of the enzymatic activity) by plotting the peptide concentration (base-10 logarithm) as a function of the enzyme inhibition percentage.
All data are reported as mean ± standard deviation (SD) for three replicates for each prepared sample. GraphPad Prism 6.0 (GraphPad Software, San Diego, CA, USA) was used for univariate analysis of variance (ANOVA) with Tukey post-hoc test. The differences were considered significant when p < 0.05.

Row | IC50 (rat intestinal DPP-IV) | Molecule | DPP-IV inhibition (in words) [1]
1 |  | APFPE | novel potent DPP-IV inhibitor
2 | 480.6 ± 2.1 µM | CC(C)[C@H](NC(=O)[C@@H](N)Cc1ccccc1)C(=O)N1CCC[C@H]1C(=O)N[C@@H](Cc1c[nH]cn1)C(=O)O [FVPH] (H-FVPH-OH) | 
3 | 57.7 µM | CC[C@H](C)[C@H](NC(=O)[C@@H]1CCCN1C(=O)[C@H](C)NC(=O)[C@@H](N)CO)C(=O)O [SAPI] (H-SAPI-OH) | 
4 | 189 ± 1.5 µM | CC[C@H](C)[C@H](NC(=O)[C@@H](N)CO)C(=O)N1CCC[C@H]1C(=O)N[C@@H](CCCNC(=N)N)C(=O)O [SIPR] (H-SIPR-OH) | 
